Assay [1] concerns synaptosomes from the striatal area of rat brain. Briefly: [3H]-dopamine release from rat striatal synaptosomes. The format is biochemical, Sprague-Dawley rats. To be noted: 0.2 ml of a 20 μM solution of ligand, relative to equal concentration of S(-) nicotine. As to the method:
Dopamine release was measured by preparing synaptosomes from the striatal area of rat brain obtained from Sprague-Dawley rats generally according to the procedures set forth by Nagy, et al., J. Neurochem., Vol. 43, pp. 1114-1123 (1984). Striata from 4 rats were homogenized in 2 ml of 0.32M sucrose buffered with 5 mM HEPES (pH 7.5), using a glass-teflon tissue grinder. The homogenate was diluted to 5 ml with additional homogenization solution and centrifuged at 1000×g for 10 min. This procedure was repeated on the new pellet and the resulting supernatant was centrifuged at 12,000×g for 20 min. […] Using this method, 30 to 90 percent of the dopamine was taken up into the synaptosomes, as determined by scintillation counting following filtration through glass fiber filters soaked with 0.5 percent polyethyleneimine. […] After the addition of a 0.2 ml of a 20 μM solution of ligand, the perfusate was collected into scintillation vials at 1 min. intervals and the dopamine released was quantified by scintillation counting. Peaks of radioactivity released above background were summed and the average basal release during that time was subtracted from the total. Release was expressed as a percentage of release obtained with an equal concentration of S(-) nicotine.

For assay [2], the target named is high affinity nicotinic receptors. As to the kind of experiment: Inhibition of L-[3H]nicotine binding to mouse brain membrane preparations. More on the design: species or system Mice (DBA strain). Conditions: mouse brain membranes, 2 hr incubation at 4° C., 10 nM L-[3H]nicotine, Ki calculated from IC50 by method of Cheng et al. As to the method: Mice (DBA strain) were maintained on a 12 hour light/dark cycle and were allowed free access to water and food supplied by Wayne Lab Blox, Madison, Wis. Animals used in the present studies were 60 to 90 days of age and weighed 20 to 25 g. Brain membrane preparations were obtained from pooled brain tissue of both males and females.
Mice were killed by cervical dislocation. Brains were removed and placed on an ice-cold platform. […] Protein was determined by the method of Lowry, et al., J. Biol. Chem., Vol. 193, pp. 265-275 (1951), using bovine serum albumin as the standard.
The binding of L-[^3 H]nicotine was measured using a modification of the method of Romano, et al., Science, Vol. 210, pp. 647-650 (1980) as described previously by Marks, et al., Mol. Pharmacol., Vol. 30, pp. 427-436 (1986). The binding of L-[^3 H]nicotine was measured using a 2 hr. incubation at 4° C. […] Nonspecific binding was determined by inclusion of 10 μM nonradioactive nicotine in the incubations. The inhibition of L-[^3 H]nicotine binding by test compounds was determined by including one of eight different concentrations of the test compound in the incubation. […] Inhibition constants (Ki values) were calculated from the IC50 values using the method of Cheng, et al., Biochem. Pharmacol., Vol. 22, pp. 3099-3108 (1973). […]

For the compound `CN1CCCC1c1ccncc1` (centres unmarked) [gamma-nicotine], in assay [1], the “Dopamine Release (Percent release relative to S(-) nicotine)” value came out at 45%. In assay [2], the Ki is 1.1 ± 0.1 µM.

Broadly, the Ki is a measure of affinity in units of concentration, obtained from inhibition or displacement.
